This is an account of results in ChEMBL document CHEMBL5154658, “Discovery of quinazoline derivatives as novel small-molecule inhibitors targeting the programmed cell death-1/programmed cell death-ligand 1 (PD-1/PD-L1) interaction” (Eur J Med Chem, 2022).

Series [1] addresses T1, Programmed cell death protein 1/Programmed cell death 1 ligand 1 (Homo sapiens, UniProt Q15116+Q9NZQ7). Briefly: Inhibition of Tag2-PD-1/Tag1-PD-L1 (unknown origin) protein-protein interaction incubated for 15 mins by HTRF assay. The series is classed as protein-complex assay.
Series [2] addresses T1, Programmed cell death protein 1/Programmed cell death 1 ligand 1. In words: Inhibition of PD-1/PD-L1 (unknown origin) interaction. The series is classed as protein-complex assay.
For series [3] the target is unchanged. Briefly: Inhibition of PD-1/PD-L1 interaction in CHO cells expressing PD-Ll/TCR cocultured with human Jurkat cells expressing PD-1 assessed as T-cell activation by measuring maximum relative luminescence intensity value at 10 uM incubated for 6 hrs by luciferase reporter gene assay. The series is classed as cell-based. (In general: A reporter such as luciferase makes a cellular process visible.)

Series [4] in a line: Cytotoxicity against human PBMC cells assessed as reduction in cell growth incubated for 72 hrs by CCK8 assay. The series is classed as toxicity, cell-based. (Tetrazolium assays rely on reduction of a dye to a coloured formazan, in cell work by metabolically active cells.)
Series [5] has as its target T1, Programmed cell death protein 1/Programmed cell death 1 ligand 1. Briefly: Inhibition of PD-1/PD-L1 interaction in human CD3+ T-cells co-cultured with Hep3B cells expressing OS8/hPD-L1 assessed as increase in IFN-gamma secretion measured after 72 hrs by ELISA. Conditions: dose 0.082-2.222 µM, DDE = dose-dependent effect. A general note: In an ELISA, binding on a coated surface is turned into a signal by an enzyme label.

For series [6] the target is unchanged. In words: Inhibition of PD-1/PD-L1 interaction in human CD3+ T-cells co-cultured with Hep3B cells expressing OS8/hPD-L1 assessed as increase in IFN-gamma secretion at 2.22 uM measured after 72 hrs by ELISA. The arrangement: scale not given: the % may be the effect or the level left.
Series [7] in a line: Cytotoxicity against human PBMC cells assessed as reduction in cell growth at 0.003 to 2.22 uM incubated for 72 hrs by CCK8 assay. The class given is toxicity, cell-based. Conditions: dose 0.003-2.22 µM.
Series [8] in a line: Cytotoxicity against human PBMC cells assessed as reduction in cell growth at >2.22 uM incubated for 72 hrs by CCK8 assay. The class given is toxicity, cell-based.
Series [9] concerns the target Programmed cell death 1 ligand 1 (Homo sapiens) (UniProt Q9NZQ7). In words: Binding affinity to human PD-L1 assessed as change in melting temperature at 10 uM by thermal shift based DSF assay.
Series [10] shares this target. In words: Binding affinity to human PD-L1 assessed as change in melting temperature at 20 uM by thermal shift based DSF assay.
Series [11] has the same target. Briefly: Binding affinity to human PD-L1 assessed as change in melting temperature at 50 uM by thermal shift based DSF assay.
The target in series [12] is T1, Programmed cell death protein 1/Programmed cell death 1 ligand 1. Briefly: Inhibition of C-terminal-Fc-tagged human recombinant PD-1 (25 to 167 residues)/C-terminal-His-tagged recombinant human PD-L1 (19 to 238 residues) interaction incubated for 40 mins by HTRF assay. The class given is protein-complex assay.

Where only a bound is given, the exact number is not on record here.

Programmed cell death 1 ligand 1 (Homo sapiens), sequence (Q9NZQ7 whole entry): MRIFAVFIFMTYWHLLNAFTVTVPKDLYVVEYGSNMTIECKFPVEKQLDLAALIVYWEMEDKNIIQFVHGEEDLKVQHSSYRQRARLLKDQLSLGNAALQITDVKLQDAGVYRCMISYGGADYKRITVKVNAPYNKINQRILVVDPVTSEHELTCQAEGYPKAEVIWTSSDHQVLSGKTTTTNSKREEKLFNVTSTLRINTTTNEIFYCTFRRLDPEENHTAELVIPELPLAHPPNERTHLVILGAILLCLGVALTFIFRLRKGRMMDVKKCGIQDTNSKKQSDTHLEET
T1 sequence (Q15116 whole entry): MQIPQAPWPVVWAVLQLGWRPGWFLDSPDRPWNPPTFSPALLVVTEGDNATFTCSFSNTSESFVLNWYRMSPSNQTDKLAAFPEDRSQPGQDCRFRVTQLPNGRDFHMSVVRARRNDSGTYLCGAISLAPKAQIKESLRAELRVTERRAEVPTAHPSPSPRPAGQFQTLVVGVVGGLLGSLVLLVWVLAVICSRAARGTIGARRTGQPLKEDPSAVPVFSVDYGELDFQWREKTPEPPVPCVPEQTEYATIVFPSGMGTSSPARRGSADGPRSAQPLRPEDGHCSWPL
T1 sequence (Q9NZQ7 whole entry): as the sequence (Q9NZQ7 whole entry) above

With `N#Cc1cccc(COc2cc(Oc3ncnc4c(-c5ccccc5)cccc34)c(Cl)cc2CNCCO)c1`, the midpoint of inhibition in [1], the IC50, lay at 78.5 nM.
For the compound `CC(C)OC(=O)[C@H](CO)NCc1cc(Cl)c(OCc2cccc(-c3ccc4c(c3)OCCO4)c2Br)cc1OCc1cccnc1`, the IC50 in [2] was determined as 10 nM.
As for `CC(CO)(CO)NCc1cc(Cl)c(Oc2ncnc3c(-c4ccccc4)cccc23)cc1OCc1cccc(C#N)c1`, the IC50 in series [1] turned out to be 22.9 nM.
Same read-out and setting: in the case of `N#Cc1cccc(COc2cc(Oc3ncnc4c(-c5ccc6c(c5)OCCO6)cccc34)c(Cl)cc2CNC(CO)CO)c1` it was 31.1 nM; in that of `N#Cc1cccc(COc2cc(Oc3ncnc4c(-c5ccc6c(c5)OCCO6)cccc34)c(Cl)cc2CN2CCCC[C@@H]2C(=O)O)c1`, 411 nM; in that of `N#Cc1cncc(COc2cc(Oc3ncnc4c(-c5ccccc5)cccc34)c(Cl)cc2CNC(CO)CO)c1`, 57.6 nM.
In [1], `N#Cc1cncc(COc2cc(Oc3ncnc4c(-c5ccc6c(c5)OCCO6)cccc34)c(Cl)cc2CNC(CO)CO)c1` showed an IC50 of 5.37 nM. Besides, the RLU in series [3] was found to be 3370. In series [4], the IC50 at 72 h was determined as 5310 nM. Moreover, the inhibition result in series [5] was “Dde”. Also, the values for the Activity in series [6], in [7] and in [8] were 654%, “Non-Toxic” and “Toxic”, respectively.
As to `CC(CO)(CO)NCc1cc(Cl)c(Oc2ncnc3c(-c4ccc5c(c4)OCCO5)cccc23)cc1OCc1cncc(C#N)c1`, in series [1], inhibition was half-maximal at 1.57 nM (IC50). Moreover, the ΔTm amounted to 2.35 °C in [9], 3.2 °C in series [10] and 3.25 °C in series [11]. Moreover, in series [3], the RLU came to 3120. In addition, in series [4], the IC50 at 72 h came out at 12400 nM. Further, in series [5], the inhibition entry is “Dde”. Also, the Activity in series [6] is 820%; in series [7], “Non-Toxic”; in series [8], “Toxic”.
`CC(CO)(CO)NCc1cc(Cl)c(Oc2ncnc3c(-c4ccc5c(c4)OCCO5)cccc23)cc1OCc1cccc(C#N)c1` had an IC50 in [1] of 18.8 nM.
Take `N#Cc1cncc(COc2cc(Oc3ncnc4c(-c5ccc6c(c5)OCCO6)cccc34)c(Cl)cc2CNCCO)c1`: it took 12.2 nM to reach half-maximal inhibition in series [1] (IC50).
Regarding `N#Cc1cccc(COc2cc(Oc3ncnc4c(-c5ccc6c(c5)OCCO6)cccc34)c(Cl)cc2CN2CCCC[C@H]2C(=O)O)c1`, in [1], the IC50 was > 500 nM.
With `N#Cc1cccc(COc2cc(Oc3ncnc4c(-c5ccccc5)cccc34)c(Cl)cc2CN2CCCC[C@H]2C(=O)O)c1`, the IC50 in series [1] was > 500 nM.
As to `N#Cc1cccc(COc2cc(Oc3ncnc4c(-c5ccccc5)cccc34)c(Cl)cc2CN2CCCC[C@@H]2C(=O)O)c1`, the IC50 in series [1] is > 500 nM.
For `Cc1c(-c2ccccc2)cccc1-c1nc2cc(CNCCO)ccc2o1`, the IC50 in series [12] is ≤ 10 nM.
Turning to `N#Cc1cccc(COc2cc(Oc3ncnc4c(-c5ccc6c(c5)OCCO6)cccc34)c(Cl)cc2CNCCO)c1`, the IC50 in series [1] is 22.4 nM.
As to `CC(=O)NCCNCc1cc(Cl)c(Oc2ncnc3c(-c4ccc5c(c4)OCCO5)cccc23)cc1OCc1cncc(C#N)c1`, the IC50 in series [1] is 96 nM.
The compound `N#Cc1cncc(COc2cc(Oc3ncnc4c(-c5ccccc5)cccc34)c(Cl)cc2CNCCO)c1` registered an IC50 in series [1] of 171 nM.
`CC(C)(NCc1cc(Cl)c(Oc2ncnc3c(-c4ccc5c(c4)OCCO5)cccc23)cc1OCc1cccc(C#N)c1)C(=O)O`: in [1], the IC50 was 88.6 nM.
`CC(=O)NCCNCc1cc(Cl)c(Oc2ncnc3c(-c4ccccc4)cccc23)cc1OCc1cncc(C#N)c1`: in series [1], the IC50 was 187 nM.
In turn, `CC(C)(NCc1cc(Cl)c(Oc2ncnc3c(-c4ccccc4)cccc23)cc1OCc1cccc(C#N)c1)C(=O)O` returned a half-inhibitory concentration (IC50) in series [1] of 150 nM.
For the compound `N#Cc1cccc(COc2cc(Oc3ncnc4c(-c5ccccc5)cccc34)c(Cl)cc2CNC(CO)CO)c1`, the IC50 in series [1] came out at 24.2 nM.
Take `CC(CO)(CO)NCc1cc(Cl)c(Oc2ncnc3c(-c4ccccc4)cccc23)cc1OCc1cncc(C#N)c1`: in series [1], the IC50 worked out at 32.5 nM.
In the case of `CC(=O)NCCNCc1cc(Cl)c(Oc2ncnc3c(-c4ccc5c(c4)OCCO5)cccc23)cc1OCc1cccc(C#N)c1`, the IC50 in series [1] was > 500 nM.
For `CC(=O)NCCNCc1cc(Cl)c(Oc2ncnc3c(-c4ccccc4)cccc23)cc1OCc1cccc(C#N)c1`, in series [1], the IC50 is > 500 nM.

What is called IC50 is the concentration at which inhibition is half-maximal. A word on the ΔTm: it is the shift of the melting midpoint relative to a reference.
